# Results: patent publication US8389728B2, “Pollen tube stimulants from Arabidopsis pistils” (The Arizona Board of Regents, priority 2009, dated 2013)
# Experiments:
# [1] = tested on: Arabidopsis thaliana, ecotype Columbia; assay: Stimulation of pollen germination and pollen tube growth in vivo (seed yield); details: sprayed onto plants after blossoms open
# Description: The stimulation of pollen germination in vivo may be achieved by applying an effective amount of one or both Compound A or Compound B, or functional derivative thereof, to a plant, such as Arabidopsis thaliana, ecotype Columbia, or another plant that is sufficiently evolutionarily related to Arabidopsis, such as a member of family Brassicaceae. The pollen growth stimulant can be applied in any formulation such as described herein and by any method of applying a compound to the flower of a plant. For example, an effective amount of Compound A can be sprayed onto any given number of plants in an area after blossoms open and pistils are exposed.
# [2] = tested on: pollen from the Landsberg strain; assay: Time course of pollen germination and tube growth, Landsberg strain; type: cell-based, Arabidopsis thaliana; details: 0.02 mg compound
# Protocol: (§1) Using the optimal concentration of compound for pollen tube stimulation (0.02 mg compound dispensed into 50 μL of pollen growth medium) pollen tube growth were time lapse imaged for a duration of greater than 12 hours. […] For example, Landsberg pollen grew about 130 μm longer in the presence of compound A compared to compound B (FIG. 11B).
# [3] = tested on: pollen from the Arabidopsis Columbia strain; assay: Time course of pollen germination and tube growth, Columbia strain; type: cell-based, Arabidopsis thaliana
# Protocol: as §1
# Arabidopsis pollen = assay: Time lapse imaging of pollen germination and pollen tube growth; type: cell-based, Arabidopsis thaliana; details: for initiation of germination compared to no compound controls: 0.02 mg compound in 50 μL PGM, time lapse > 12 hours; for rate of pollen germination (in words): 0.02 mg compound in 50 μL of pollen growth medium
# Protocol: as §1
# [4] = Han et al. 2007; cited from earlier work
compound,measurement,setting,value
"C[S+]([O-])N1CCCC2CCCCC21 (stereo not drawn) [Compound A, 1-Methylsulfinyldecahydroquinoline]",seed yield of plants exposed versus not exposed,[1],increased seed yield
same,additional pollen tube length in the presence of compound A compared to compound B,[2],about 130 μm
same,"extent of pollen growth, compound A versus B (in words)",[3],grew to a similar extent
same,initiation of germination compared to no compound controls,Arabidopsis pollen,approximately two hours earlier
same,rate of pollen germination (in words),Arabidopsis pollen,enhanced the rate of pollen germination
"C[S+]([O-])N1CCC2CCCCC2C1 (stereo not drawn) [Compound B, 2-Methylsulfinyldecahydroisoquinoline]","extent of pollen growth, compound A versus B (in words)",[3],grew to a similar extent
same,initiation of germination compared to no compound controls,Arabidopsis pollen,approximately two hours earlier
same,rate of pollen germination (in words),Arabidopsis pollen,enhanced the rate of pollen germination
O=c1c(O)c(-c2ccc(O)cc2)oc2cc(O)cc(O)c12 [kaempferol],solubility in ethyl acetate,[4],highly soluble in ethyl acetate
